Experimental findings from US20240368133A1, “Compounds for the Treatment of Pain, in Particular, Neuropathic Pain, and/or Other Diseases or Disorders that are Associated with AT2R and/or AT2R Mediated Signaling” (Confo Therapeutics N.V., priority 2021, published 2024) are described below.

Common to all, as to format: in vitro ADME
A short description of data set [1]: Plasma protein binding (equilibrium dialysis), rat. Particulars: for fraction unbound: equilibrium dialysis, read-out: PPB (%), rat (converted); for recovery: plasma (undiluted, freshly thawed), PPB assay recovery. How it is done: (§1) The assay was performed in a multiple-use 96-well dialysis unit (HTD96b dialyzer). Each individual well unit consisted of 2 chambers separated by a vertically aligned dialysis membrane of predetermined pore size (MWCO 12-14 kDa). 120 μl of non-diluted freshly thawed mouse, rat or human plasma spiked with the compound (1 μM, final DMSO concentration 1%) was added to one chamber and the same volume of PBS buffer pH 7.4 to the other chamber. HTD96b dialyzer was covered with adhesive sealing film and incubated at 37° C., shaking at 100 rpm for 5 hours.
(§2) For samples preparation, an aliquot of the content of each chamber had been mixed with the same volume of the blank opposite matrix. In order to define non-specific loss of the compound during this assay, a standard solution was created by mixing an aliquot of spiked plasma with blank buffer without dialysis. Samples were diluted 10-fold with 100% acetonitrile with subsequent plasma proteins sedimentation by centrifuging at 6000 rpm for 5 minutes. Supernatants were analyzed using HPLC system coupled with tandem mass spectrometer (API3000 PE Sciex). Acquisition and analysis of the data were performed using Analyst 1.5.2 software (PE Sciex). The percentage of plasma protein bound compound and recovery were calculated using following equations: […]
Prior to the start of the experiment, dialysis membranes (membrane strips, MW cut-off 12-14 kDa, HTDialysis, Cat.NoJl 101) are soaked in deionized water for 60 min, transferred and left overnight in 20% EtOH. The day of experiment, a 10 mM stock solution of the compound in DMSO is diluted with a factor 10 in DMSO. This solution is further diluted in freshly thawed human, rat, mouse or dog plasma (BioIVT) with a final concentration of 5 μM and final DMSO concentration of 0.5%.
From this solution, an aliquot of 50 μL was taken and matrix matched with an equivalent volume of PBS for the recovery plate, after which 6 volumes of STOP solution were added to the recovery plate. For these recovery plates, no incubation is done.
Equilibrium Dialysis Device (96-well, model HTD96b, HTDialysis, Cat. No. #1006) is assembled according to manufacturer's instructions. Immediately after assembly, a volume of 100 μL of plasma (spiked with compound) is placed on one side of the well and another 100 μL of blank PBS buffer are added to the other side, respectively. Each compound is tested in duplicate. Acebutolol and Nicardipine are used as low and very high binding controls, except for the mouse, Caffeine is used as low binder instead Acebutolol. If the PPB values for these controls are not in the range determined by the historical data, the assay is not validated.
The plate is incubated for 4 h at 37° C. while shaking at 230 rpm. Thereafter, an aliquot of 50 μL is taken from each side of the well and matrix matched (mix of equal volumes of spiked plasma with blank PBS buffer and samples from buffer compartment with blank plasma). Matrix matched samples are further mixed with 3 volumes of STOP solution (acetonitrile/MeOH 2/1 with diclofenac as internal standard). After brief mixing and centrifugation (at 2400 rpm for 15 min, at +4° C.), the supernatant is filtered and transferred into new 96-well plates for analysis on LC-MS/MS (systems API4000).
(§3) The percentage of plasma protein bound compound and recovery were calculated using following equations:
(§4) with: • Cplasma=peak area of the compound in the plasma/peak area of the IS in the plasma • Cbuffer=peak area of the compound in the buffer/peak area of the IS in the buffer • ‘Concentration’ is the ratio between compound and IS peak areas
The recovery is a control, which allows to be sure that the compound has not a non-specific binding to the plates or is not stable in the plasma in these conditions: […]
(In equilibrium dialysis free small molecules cross a membrane that holds back macromolecules.)

Data set [2] is described as follows: Plasma protein binding (equilibrium dialysis), human. Particulars: for fraction unbound: equilibrium dialysis, read-out: PPB (%), human (converted); for recovery: plasma (undiluted, freshly thawed), PPB assay recovery. How it is done: as §1, §2, §3, §4
(§5) The recovery is a control, which allows to be sure that the compound has not a non-specific binding to the plates or is not stable in the plasma in these conditions:
(§6) with: • PBS=(ratio of the peak area of the compound/peak area of the IS) in the PBS compartment after 4 h • Plasma=(ratio of the peak area of the compound/peak area of IS) in the plasma compartment after 4 h • Recov=Recovery=ratio of the peak are of the compound I the well recovery/peak area of the IS in the well recovery at TO
(§7) The solubility of the compound in the final test concentration in PBS is checked by microscope to indicate whether precipitation is observed or not. If a precipitate is observed, no data of PPB is generated.

Data set [3] is described as follows: Plasma protein binding (equilibrium dialysis), mouse. Particulars: for fraction unbound: equilibrium dialysis, read-out: PPB (%), mouse (converted); for recovery: plasma (undiluted, freshly thawed), PPB assay recovery. How it is done: as §1, §2, §3, §4, §5, §6, §7

SMILES strings stand for the structures.

As to `CCC1CN(Cc2cccnn2)CCN1c1cc(CC(C)C)cc(F)c1-c1nn[nH]n1` (stereo not shown) [Compound A-181, 3-[[3-ethyl-4-[3-fluoro-5-isobutyl-2-(2H-tetrazol-5-yl)phenyl]piperazin-1-yl]methyl]pyridazine], the fraction unbound in data set [1] was 0.12; in data set [2], 0.03; in data set [3], 0.07. For the same molecule, the recovery in data set [1] came to 96%; in data set [2], 95%; in data set [3], 96%.
As for `CC(C)Cc1cc(F)c(-c2nn[nH]n2)c(N2CC(C)N(Cc3cccnn3)CC2C)c1` (stereo not shown) [Compound A-183, 3-[[4-[3-fluoro-5-isobutyl-2-(2H-tetrazol-5-yl)phen-yl]-2,5-dimethyl-piperazin-1-yl]-methyl]pyridazine], the fraction unbound in data set [1] is 0.23; in data set [2], 0.06; in data set [3], 0.13. In addition, the recovery in data set [1] was determined as 92%; in data set [2], 96%; in data set [3], 90%.
Turning to `CCC1CN(c2cc(CC(C)C)cc(F)c2-c2nn[nH]n2)CCN1Cc1cccnn1` (stereo not shown) [Compound A-178, 3-[[2-ethyl-4-[3-fluoro-5-isobutyl-2-(2H-tetrazol-5-yl)phenyl]piperazin-1-yl]methyl]pyridazine], the fraction unbound was 0.12 in data set [1], 0.04 in data set [2] and 0.1 in data set [3]. The recovery in data set [1] amounted to 96%; in data set [2], 99%; in data set [3], 93%.
Take `CC(C)Cc1ccc(-c2nn[nH]n2)c(N2CCN(Cc3cccnn3)CC2)c1` [Compound A-90, 3-[[4-[5-isobutyl-2-(2H-tetrazol-5-yl)phenyl]piperazin-1-yl]methyl]pyridazine]: the fraction unbound in data set [1] was 0.23; in data set [2] it was 0.05; in data set [3], 0.22. Besides, the values for the recovery in data set [1], in data set [2] and in data set [3] were 105%, 83% and 97%, respectively.
Take `CC(C)Cc1cc(F)c(-c2nn[nH]n2)c(N2CCN(Cc3ccccn3)[C@@H](C)C2)c1` [Compound A-217, (2S)-4-[3-fluoro-5-isobutyl-2-(2H-tetrazol-5-yl)phenyl]-2-methyl-1-(2-pyridylmethyl)piperazine]: the fraction unbound in data set [1] and in data set [2] was 0.004 each time. In addition, the recovery in data set [1] was 98%; in data set [2], 100%.
As for `CC(C)Cc1cc(F)c(-c2nn[nH]n2)c(N2CCN(Cc3cccnn3)[C@@H](C)C2)c1` [Compound A-174, 3-[[(2S)-4-[3-fluoro-5-isobutyl-2-(2H-tetrazol-5-yl)phenyl]-2-methyl-piperazin-1-yl]methyl]pyridazine], the values for the fraction unbound in data set [1], in data set [2] and in data set [3] were 0.017, 0.026 and 0.027, respectively. Moreover, the recovery is 90% in data set [1], 99% in data set [2] and 95% in data set [3].
For the molecule `CC(C)Cc1ccc(-c2nn[nH]n2)c(N2CCN(Cc3nc4ccccc4c(=O)[nH]3)CC2)c1` [Compound A-31, 2-[[4-[5-isobutyl-2-(2H-tetrazol-5-yl)phenyl]piperazin-1-yl]methyl]-3H-quinazolin-4-one], the fraction unbound in data set [1] was under 0.1; in data set [2], under 0.08; in data set [3] it was under 0.05. Moreover, the recovery in data set [1] was 84%; in data set [2] it was 82%; in data set [3], 88%.
For the molecule `CC(C)Cc1cc(F)c(-c2nn[nH]n2)c(N2CCN(Cc3cccnn3)C(C)C2)c1` (stereo not shown) [Compound A-173, 3-[[4-[3-fluoro-5-isobutyl-2-(2H-tetrazol-5-yl)phenyl]-2-methyl-piperazin-1-yl]methyl]pyridazine], the fraction unbound in data set [1] was 0.19; in data set [2] it was 0.05; in data set [3] it was 0.12. Further, the recovery in data set [1] worked out at 100%; in data set [2] it was 94%; in data set [3], 92%.
